# Laboratory results taken from ChEMBL document CHEMBL5104189, “Piptide Chemotypes for Perturbation of the Interaction of Urokinase with Its Receptor” (J Med Chem, 2022).
# pIC50, pKi: −log10 of the molar value. Calls of active or inactive are those of the source. The calls are words filed in the database; no cut-off is given here.
# What was measured:
# [1] = molecular target: T1, Urokinase-type plasminogen activator/surface receptor (Homo sapiens, UniProt P00749+Q03405); assay: Inhibition of uPAR/uPA (unknown origin) interaction assessed as dissociation constant by fluorescence polarization (FP) assay; assay type: protein assay
# [2] = molecular target: T1, Urokinase-type plasminogen activator/surface receptor; assay: Inhibition of uPAR/uPA (unknown origin) interaction by ELISA; assay type: protein assay
# MDA-MB-231 [3] = assay: Antimigratory activity in human MDA-MB-231 cells assessed as scratch closure speed at 5 to 50 uM by scratch wound healing assay; assay type: functional, cell-based; details: dose 5-50 µM
# MDA-MB-231 [4] = assay: Anti-invasive activity in human MDA-MB-231 cells assessed as relative invasion at 5 to 50 uM by scratch wound healing assay; assay type: functional, cell-based; details: dose 5-50 µM
# MDA-MB-231 [5] = assay: Antimigratory activity in human MDA-MB-231 cells assessed as relative migration at 5 to 50 uM by scratch wound healing assay; assay type: functional, cell-based; details: dose 5-50 µM
SMILES,pKi [1],pIC50 [2],Activity (MDA-MB-231 [3]),Activity (MDA-MB-231 [4]),Activity (MDA-MB-231 [5])
Cc1cccc2c(C(=O)N3CCN(c4c(C)n(C)c(=O)n(C)c4=O)CC3)cc(-c3ccccc3)nc12,5.60,4.81,,,
CC[C@H](C)[C@@H](C(N)=O)n1cc([C@@H](CO)NC(=O)N2CCN([C@@H](CO)C(=O)N3CCN([C@@H](CCCCN)C(=O)O)CC3)CC2)nn1,5.59,5.55,,,
Cc1ccc(N2C(=O)C(O)=C(C(=O)c3ccc(Cl)cc3)C2c2cccc(F)c2)cc1Br (centres undefined),6.15,4.74,,,
CC[C@H](C)[C@@H](C(N)=O)n1cc([C@@H](CO)N2C(=O)N[C@@H](Cc3ccccc3)C2=O)nn1,5.12,5.08,,,
NCCCC[C@H](C(=O)N1CCN([C@@H](CO)C(N)=O)CC1)n1cc([C@@H](Cc2ccccc2)N2C(=O)N[C@@H](CO)C2=O)nn1,5.66,5.61,,,Active

# Continued, in another order:
pKi [1],pIC50 [2],SMILES,Activity (MDA-MB-231 [3]),Activity (MDA-MB-231 [4]),Activity (MDA-MB-231 [5])
5.56,5.51,NCCCC[C@H](C(=O)N1CCN([C@H](Cc2ccccc2)C(N)=O)CC1)N1CCN(C(=O)[C@H](N)CO)CC1,Active,Active,
4.88,4.83,NC(=O)C[C@H](C(=O)N1CCN([C@H](CO)C(N)=O)CC1)N1CCN(C(=O)[C@H](N)Cc2ccccc2)CC1,,,
5.21,5.51,NCCCC[C@H](C(=O)N1CCN([C@@H](Cc2ccccc2)C(N)=O)CC1)N1CCN(C(=O)[C@H](N)CO)CC1,,,
